Laboratory results as given in patent EP1077967B1, “BIPHENYL OXO-ACETIC ACIDS USEFUL IN THE TREATMENT OF INSULIN RESISTANCE AND HYPERGLYCEMIA” (Wyeth, priority 1998, dated 1999).
Like-named read-outs stand apart in the source and are kept apart here.

Columns and labels:
Human recombinant PTP1B = target: T1, Human recombinant PTP1B (Homo sapiens, UniProt P18031); test: Inhibition of tri-phosphorylated insulin receptor dodecaphosphopeptide dephosphorylation by hPTP1B (malachite green); format: biochemical; conditions: recombinant PTP1B, dodecaphosphopeptide substrate
T1 construct: made in house
T1 sequence (P18031 1-435): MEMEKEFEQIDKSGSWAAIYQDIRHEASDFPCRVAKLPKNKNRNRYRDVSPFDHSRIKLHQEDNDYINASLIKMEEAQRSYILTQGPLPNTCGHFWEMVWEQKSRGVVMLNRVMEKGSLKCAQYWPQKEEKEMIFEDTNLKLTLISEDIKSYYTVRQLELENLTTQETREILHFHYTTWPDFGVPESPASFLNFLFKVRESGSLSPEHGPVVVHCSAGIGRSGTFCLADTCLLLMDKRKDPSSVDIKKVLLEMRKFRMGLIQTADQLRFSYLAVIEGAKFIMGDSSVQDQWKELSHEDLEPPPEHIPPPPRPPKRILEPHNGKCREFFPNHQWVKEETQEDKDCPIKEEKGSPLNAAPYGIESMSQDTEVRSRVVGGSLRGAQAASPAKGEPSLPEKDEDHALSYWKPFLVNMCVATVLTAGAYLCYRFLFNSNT

diabetic (ob/ob) mice = test: Blood glucose lowering in diabetic (ob/ob) mice; format: in vivo; conditions: Mus musculus, po, cells marked a = no significant activity (p<0.05) at this dose
[1] = system: rat hepatic microsomal PTPases; test: Inhibition of tri-phosphorylated insulin receptor dodecaphosphopeptide dephosphorylation by rat hepatic PTPases (malachite green); format: biochemical; conditions: rat liver microsomal fraction; for % Change from Control: PTPase activity, compound at 50 µM; for IC50: % Change from Control
[2] = read-out: % Change Insulin from Vehicle
[3] = plasma glucose, read-out: % Change Glucose from Vehicle

| Structure (SMILES) | IC50 (Human recombinant PTP1B) | change in vivo at 100 mg/kg (diabetic (ob/ob) mice; [2]) | change in vivo at 100 mg/kg (diabetic (ob/ob) mice; [3]) | % Change from Control [1] | change in vivo at 25 mg/kg (diabetic (ob/ob) mice; [2]) | change in vivo at 25 mg/kg (diabetic (ob/ob) mice; [3]) | IC50 [1] |
| --- | --- | --- | --- | --- | --- | --- | --- |
| C[C@@H](Oc1ccc(-c2ccc(-c3c(Cc4ccccc4)oc4ccccc34)cc2)cc1)C(=O)O [Example 17, (2R)-2-[4'-(2-Benzyl-benzofuran-3-yl)-biphenyl-4-yloxy]-propionic acid] | 1320 nM | -94.4% | 13.7% | -63% |  |  |  |
| COc1ccc(-c2cc(-c3ccc(-c4c(Cc5ccccc5)sc5ccccc45)cc3)cc(-c3ccc(OC)cc3)c2OCC(=O)O)cc1 [Example 2] | 25 nM |  |  |  | 11.2% | -25.5% | 28400 nM |
| O=C(O)[C@@H](CCN1C(=O)c2ccccc2C1=O)Oc1ccc(-c2ccc(-c3c(Cc4ccccc4)oc4ccccc34)cc2)cc1 [Example 48, (2R)-2-[4'-(2-benzyl-benzofuran-3-yl)-biphenyl-4-yloxy]-4-(1,3-dioxo-1,3-dihydro-isoindol-2-yl)-butyric acid] | 341 nM |  |  |  | -30% | 4.7% |  |
| O=C(c1ccccc1)c1oc2ccccc2c1-c1ccc(-c2ccc(OC(Cc3ccccc3)C(=O)O)cc2)cc1 (stereo not shown) [Example 14] |  |  | -39% | -55% |  |  |  |
| O=C(O)[C@H](Cc1ccccc1)Oc1ccc(-c2ccc(-c3c(Cc4ccccc4)oc4ccccc34)cc2)cc1 [Example 1, (2S)-2-[4'-(2-Benzyl-benzofuran-3-yl)-biphenyl-4-yloxy]-3-phenyl-propionic acid] | 322 nM | 17% | -40.3% | -53% |  |  |  |
| CC(Cc1ccccc1)(Oc1ccc(-c2ccc(-c3c(Cc4ccccc4)oc4ccccc34)cc2)cc1)C(=O)O (stereo not shown) [Example 24, 2-[4'-(2-Benzyl-benzofuran-3-yl)-biphenyl-4-yloxy]-2-methyl-3-phenyl-propionic acid] | 293 nM |  |  |  |  | -30.5% |  |
| O=C(O)[C@@H](Cc1ccccc1)Oc1ccc(-c2ccc(-c3c(Cc4ccc(O)c(O)c4)sc4ccccc34)cc2)cc1 [Example 28, (2R)-2-{4'-[2-(3,4-Dihydroxy-benzyl)-benzo[b]thiophene-3-yl)-biphenyl-4-yloxy]-3-phenyl-propionic acid] | 122 nM |  |  |  |  | -20% | 20600 nM |
| O=C(O)[C@@H](Cc1ccccc1)Oc1ccc(-c2ccc(-c3c(Cc4ccc(F)cc4)sc4ccccc34)cc2)cc1 [Example 19] | 123 nM | 1.1% | -27.7% |  |  |  | 21400 nM |
| O=C(O)CCCOc1ccc(-c2ccc(-c3c(Cc4ccccc4)sc4ccccc34)cc2)cc1Br [Example 42] | 178 nM |  |  |  | 9.9% | -10.6% |  |
| CCCCc1sc2ccccc2c1-c1ccc(-c2ccc(OC(Cc3ccccc3)C(=O)O)cc2)cc1 (stereo not shown) [Example 12, 2-[4'-(2-Butyl-benzo[b]thiopen-3-yl)-biphenyl-4-yloxy]-3-phenyl-propionic acid] | 176 nM | -15.8% | -27.5% | -50% |  |  |  |
| CCCCc1oc2ccccc2c1-c1ccc(-c2ccc(OC(Cc3ccccc3)C(=O)O)cc2)cc1 (stereo not shown) [Example 10, 2-[4'-(2-Butyl-benzofuran-3-yl)-biphenyl-4-yloxy]-3-phenyl-propionic acid] | 440 nM | -51.9% | -34.2% | -72% |  |  |  |
| O=C(O)C(Cc1ccccc1)Oc1ccc(-c2ccc(-c3c(Cc4ccccc4)sc4ccccc34)cc2)cc1 (stereo not shown) [Example 13, 2-[4'-(2-Benzyl-benzo[b]thiophen-3-yl)-biphenyl-4-yloxy]-3-phenyl-propionic acid] |  | 5% | -36.7% | -50% |  |  |  |
| O=C(O)[C@@H](Cc1ccccc1)Oc1ccc(-c2ccc(-c3c(Cc4ccccc4)oc4ccccc34)cc2)cc1 [Example 15, (2R)-2-[4'-(2-Benzyl-benzofuran-3-yl)-biphenyl-4-yloxy]-3-phenyl-propionic acid] | 348 nM | 4.1% | -35% | -59% |  |  |  |
| O=C(O)C(Cc1ccccc1)Oc1ccc(-c2ccc(-c3c(Cc4ccccc4)oc4ccccc34)cc2)cc1 (stereo not shown) [Example 11, 2-[4'-(2-Benzyl-benzofuran-3-yl)-biphenyl-4-yloxy]-3-phenyl-propionic acid] | 270 nM | -44.9% | -40.4% | -61% |  |  |  |
| COc1ccc(-c2cc(-c3ccc(-c4c(Cc5ccccc5)oc5ccccc45)cc3)ccc2O[C@@H](Cc2ccccc2)C(=O)O)cc1 [Example 55, (2S)-2-[4-(2-benzyl-benzofuran-3-yl)-4"-methoxy-[1,1';3',1'']terphenyl-4'-yloxy]-3-phenyl-propionic acid] | 43 nM |  |  |  | 35.4% | -13.6% |  |
| COc1ccc(-c2cc(-c3ccc(-c4c(Cc5ccccc5)sc5ccccc45)cc3)cc(Br)c2OCC(=O)O)cc1 [Example 3] | 29 nM |  |  |  | 23.5% | -29.9% | 29900 nM |
